Assay in all cases: Eurofins kinase selectivity profile against 380 other human recombinant kinases (Table S2)
Common to all, as to type: biochemical

For assay [1], the target named is T1, 380 human recombinant protein kinases (Homo sapiens, UniProt P43403).
T1 construct: purchased Eurofins (Celle Lévescault)
T1 sequence (P43403 1-619): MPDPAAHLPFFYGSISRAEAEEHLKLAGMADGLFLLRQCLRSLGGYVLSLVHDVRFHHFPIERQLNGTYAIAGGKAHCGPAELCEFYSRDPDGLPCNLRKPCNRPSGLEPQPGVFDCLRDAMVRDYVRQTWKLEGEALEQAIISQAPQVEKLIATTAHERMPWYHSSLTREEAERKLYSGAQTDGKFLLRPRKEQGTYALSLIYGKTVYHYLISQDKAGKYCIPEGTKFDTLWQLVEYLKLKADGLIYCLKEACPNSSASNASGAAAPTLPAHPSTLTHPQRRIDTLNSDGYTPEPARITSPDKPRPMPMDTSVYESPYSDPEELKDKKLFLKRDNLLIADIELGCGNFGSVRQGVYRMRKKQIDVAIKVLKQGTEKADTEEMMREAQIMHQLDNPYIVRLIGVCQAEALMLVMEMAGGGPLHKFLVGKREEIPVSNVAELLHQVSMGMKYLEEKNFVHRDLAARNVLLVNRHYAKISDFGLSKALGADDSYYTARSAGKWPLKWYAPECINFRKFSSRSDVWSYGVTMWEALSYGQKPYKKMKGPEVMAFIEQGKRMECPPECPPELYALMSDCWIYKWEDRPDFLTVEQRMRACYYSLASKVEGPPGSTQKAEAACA
Particulars: ZAP-70(h), read-out: Inhibition rate (%). Put shortly: (§1)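 Profiling against 380 human recombinant kinases carried out by Eurofins at various compound concentrations.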

Assay [2] deals with T2, 380 human recombinant protein kinases (Homo sapiens, UniProt Q52WX2).
T2 construct: purchased Eurofins (Celle Lévescault)
Particulars: SBK1(h), read-out: Inhibition rate (%). Put shortly:
as §1

Assay [3] has as its target T3, 380 human recombinant protein kinases (Homo sapiens, UniProt P19784).
T3 construct: purchased Eurofins (Celle Lévescault)
Particulars: CK2α2(h), read-out: Inhibition rate. Put shortly: as §1

For assay [4], the target named is T4, 380 human recombinant protein kinases (Homo sapiens, UniProt Q9H093).
T4 construct: purchased Eurofins (Celle Lévescault)
T4 sequence (Q9H093 1-628): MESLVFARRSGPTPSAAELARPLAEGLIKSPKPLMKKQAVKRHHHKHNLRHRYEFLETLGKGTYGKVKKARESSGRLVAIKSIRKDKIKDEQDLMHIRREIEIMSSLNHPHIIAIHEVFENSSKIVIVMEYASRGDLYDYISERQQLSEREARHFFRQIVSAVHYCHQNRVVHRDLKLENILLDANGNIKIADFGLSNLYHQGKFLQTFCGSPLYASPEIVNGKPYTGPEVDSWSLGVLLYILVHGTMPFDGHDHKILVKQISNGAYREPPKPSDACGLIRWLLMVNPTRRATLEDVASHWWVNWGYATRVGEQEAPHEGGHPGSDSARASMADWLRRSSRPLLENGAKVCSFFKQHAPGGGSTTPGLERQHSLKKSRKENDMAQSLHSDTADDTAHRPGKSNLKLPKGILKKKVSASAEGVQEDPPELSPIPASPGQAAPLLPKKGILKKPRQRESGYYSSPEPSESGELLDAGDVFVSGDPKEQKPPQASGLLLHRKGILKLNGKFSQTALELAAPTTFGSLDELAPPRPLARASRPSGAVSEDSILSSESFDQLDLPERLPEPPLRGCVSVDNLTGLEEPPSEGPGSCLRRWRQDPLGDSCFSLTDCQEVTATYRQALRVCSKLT
Particulars: NUAK2(h), read-out: Inhibition rate. Put shortly: as §1

The target of assay [5] is T5, 380 human recombinant protein kinases (Homo sapiens, UniProt Q00535).
T5 construct: purchased Eurofins (Celle Lévescault)
Particulars: read-out: Inhibition rate; for inhibition at 0.01 µM: 10 nM; for inhibition at 0.1 µM: 100 nM; for inhibition at 1 µM: 1000 nM. Put shortly:
as §1

Assay [6] concerns the target T6, 380 human recombinant protein kinases (Homo sapiens, UniProt O95747).
T6 construct: purchased Eurofins (Celle Lévescault)
Particulars: OSR1(h), read-out: Inhibition rate. An outline of the steps:
as §1

Assay [7] has as its target T7, 380 human recombinant protein kinases (Homo sapiens, UniProt O95819).
T7 construct: purchased Eurofins (Celle Lévescault)
Particulars: MAP4K4(h), read-out: Inhibition rate. Put shortly: as §1

SMILES strings stand for the structures. Like-named read-outs stand apart in the source and are kept apart here.

Consider one compound from publication PMC11233931, “Remodeling tumor‐associated macrophage for anti‐cancer effects by rational design of irreversible inhibition of mitogen‐activated protein kinase‐activated protein kinase 2” (MedComm, 2024).

In general, inhibition refers to the relative decrease from the control value, in per cent.

T2 sequence (Q52WX2 whole entry): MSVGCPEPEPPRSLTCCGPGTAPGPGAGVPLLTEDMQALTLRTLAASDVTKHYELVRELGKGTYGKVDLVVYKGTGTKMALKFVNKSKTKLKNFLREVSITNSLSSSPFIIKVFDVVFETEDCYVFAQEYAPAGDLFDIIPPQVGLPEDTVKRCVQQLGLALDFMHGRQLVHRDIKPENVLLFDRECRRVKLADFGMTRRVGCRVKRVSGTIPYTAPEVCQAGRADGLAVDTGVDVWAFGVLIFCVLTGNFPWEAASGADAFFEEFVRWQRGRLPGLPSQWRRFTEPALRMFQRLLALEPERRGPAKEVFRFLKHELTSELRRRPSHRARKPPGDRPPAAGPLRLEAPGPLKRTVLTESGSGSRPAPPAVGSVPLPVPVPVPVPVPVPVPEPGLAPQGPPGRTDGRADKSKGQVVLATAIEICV
T5 sequence (Q00535 whole entry): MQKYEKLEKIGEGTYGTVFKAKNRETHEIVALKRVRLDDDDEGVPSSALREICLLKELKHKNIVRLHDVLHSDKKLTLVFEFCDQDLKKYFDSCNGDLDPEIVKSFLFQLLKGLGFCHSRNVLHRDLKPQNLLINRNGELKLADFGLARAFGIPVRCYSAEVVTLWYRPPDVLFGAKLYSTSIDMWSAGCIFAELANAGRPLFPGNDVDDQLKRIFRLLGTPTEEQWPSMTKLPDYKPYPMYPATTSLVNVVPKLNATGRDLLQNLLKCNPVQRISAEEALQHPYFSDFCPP
T3 sequence (P19784 whole entry): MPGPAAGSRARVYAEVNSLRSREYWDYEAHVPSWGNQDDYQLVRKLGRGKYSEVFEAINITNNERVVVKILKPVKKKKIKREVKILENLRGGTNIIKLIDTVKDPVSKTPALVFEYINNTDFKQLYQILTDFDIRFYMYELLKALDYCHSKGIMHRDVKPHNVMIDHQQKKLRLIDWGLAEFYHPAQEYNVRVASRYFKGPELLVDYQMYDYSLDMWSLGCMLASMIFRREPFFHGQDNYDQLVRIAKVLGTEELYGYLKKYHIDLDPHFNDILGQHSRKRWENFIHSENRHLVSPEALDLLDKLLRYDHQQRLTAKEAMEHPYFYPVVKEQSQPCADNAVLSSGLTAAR
T7 sequence (O95819 whole entry): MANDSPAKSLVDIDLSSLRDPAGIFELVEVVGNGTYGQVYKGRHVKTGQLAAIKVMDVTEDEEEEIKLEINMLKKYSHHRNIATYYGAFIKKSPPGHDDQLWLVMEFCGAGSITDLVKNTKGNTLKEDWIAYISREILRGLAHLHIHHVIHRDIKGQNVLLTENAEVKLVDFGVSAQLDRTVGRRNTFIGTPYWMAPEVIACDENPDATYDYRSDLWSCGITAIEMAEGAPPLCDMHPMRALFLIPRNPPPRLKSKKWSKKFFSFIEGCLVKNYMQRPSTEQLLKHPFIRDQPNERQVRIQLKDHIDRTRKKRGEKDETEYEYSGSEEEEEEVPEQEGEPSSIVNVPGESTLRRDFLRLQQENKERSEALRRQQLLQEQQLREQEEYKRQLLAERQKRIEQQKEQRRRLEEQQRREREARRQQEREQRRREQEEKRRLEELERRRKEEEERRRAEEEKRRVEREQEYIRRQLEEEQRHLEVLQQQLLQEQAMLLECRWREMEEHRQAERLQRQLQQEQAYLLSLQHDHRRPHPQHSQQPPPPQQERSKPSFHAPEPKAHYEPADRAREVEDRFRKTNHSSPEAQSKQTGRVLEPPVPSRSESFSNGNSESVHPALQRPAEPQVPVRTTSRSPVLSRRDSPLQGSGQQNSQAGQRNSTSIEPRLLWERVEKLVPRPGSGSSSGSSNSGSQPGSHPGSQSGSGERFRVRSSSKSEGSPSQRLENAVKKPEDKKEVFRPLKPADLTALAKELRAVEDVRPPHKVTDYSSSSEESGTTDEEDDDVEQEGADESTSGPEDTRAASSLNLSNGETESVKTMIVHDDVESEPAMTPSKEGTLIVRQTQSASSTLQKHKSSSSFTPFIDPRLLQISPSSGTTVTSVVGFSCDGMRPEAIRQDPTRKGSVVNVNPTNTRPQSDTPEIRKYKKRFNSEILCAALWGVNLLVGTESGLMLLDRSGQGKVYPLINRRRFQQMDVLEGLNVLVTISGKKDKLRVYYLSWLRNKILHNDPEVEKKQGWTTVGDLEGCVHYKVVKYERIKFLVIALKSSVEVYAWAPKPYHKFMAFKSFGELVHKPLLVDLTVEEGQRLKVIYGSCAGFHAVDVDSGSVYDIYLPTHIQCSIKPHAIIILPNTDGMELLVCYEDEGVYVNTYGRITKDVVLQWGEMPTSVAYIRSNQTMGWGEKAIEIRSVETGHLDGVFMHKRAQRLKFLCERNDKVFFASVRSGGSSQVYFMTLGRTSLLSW
T6 sequence (O95747 whole entry): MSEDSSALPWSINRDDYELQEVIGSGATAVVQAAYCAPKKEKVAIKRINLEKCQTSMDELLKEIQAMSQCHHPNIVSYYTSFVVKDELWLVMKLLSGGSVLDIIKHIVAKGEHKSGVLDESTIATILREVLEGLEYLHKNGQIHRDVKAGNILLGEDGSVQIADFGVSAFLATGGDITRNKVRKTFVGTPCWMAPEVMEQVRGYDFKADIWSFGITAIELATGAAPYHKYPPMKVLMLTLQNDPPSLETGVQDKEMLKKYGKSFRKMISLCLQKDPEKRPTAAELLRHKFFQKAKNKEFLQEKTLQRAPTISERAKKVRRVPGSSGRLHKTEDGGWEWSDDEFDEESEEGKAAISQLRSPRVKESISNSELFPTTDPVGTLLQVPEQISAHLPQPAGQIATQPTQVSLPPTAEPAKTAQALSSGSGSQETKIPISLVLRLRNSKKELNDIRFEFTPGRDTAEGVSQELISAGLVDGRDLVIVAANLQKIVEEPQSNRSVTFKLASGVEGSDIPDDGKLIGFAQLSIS

`C=CC(=O)Nc1cc(-c2cc(-c3cc4c([nH]3)CCNC4=O)ccn2)ccc1OC(F)(F)F` [compound 11]: the inhibition at 0.01 µM in assay [1] (10 nM) is 8%; in assay [2] (10 nM), -1%; in assay [3] (10 nM) it was 10%; in assay [4] (10 nM) it was -16%; in assay [5] (CDK5/p25(h)), -6%; in assay [5] (CDK5/p35(h)), -7%. The inhibition at 0.01 µM was -1% in assay [6] (10 nM) and -11% in assay [7] (10 nM). The inhibition at 0.1 µM in assay [1] (100 nM) is 0%; in assay [2] (100 nM), -8%; in assay [3] (100 nM), 14%; in assay [4] (100 nM) it was -8%; in assay [5] (CDK5/p25(h)), 2%; in assay [5] (CDK5/p35(h)), -6%. The inhibition at 0.1 µM in assay [6] (100 nM) is 5%; in assay [7] (100 nM) it was -1%. The inhibition at 1 µM in assay [1] (1000 nM) was -13%; in assay [2] (1000 nM), 3%; in assay [3] (1000 nM), 26%; in assay [4] (1000 nM) it was 8%; in assay [5] (CDK5/p25(h)) it was -2%; in assay [5] (CDK5/p35(h)) it was 5%. The inhibition at 1 µM was determined as 11% in assay [6] (1000 nM) and 33% in assay [7] (1000 nM).
